PMC12526212, “Novel Isolongifolenone-Based Caprolactam Derivatives as Potential Anticancer Agents via the p53/mTOR/Autophagy Pathway” (Molecules, 2025)

Experiments:
MCF-7 cells [1] = assay: Cell cycle assay (PI, flow cytometry); format: cell-based, human; details: 0.5, 1.0, 2.0 µM, 24 h
Method: As a cell progresses into different cell cycle phases, its DNA content varies because of DNA synthesis (which is required to prepare additional chromosome copies prior to cell division). Consequently, a flow cytometric analysis of DNA content can provide information on the number of cells in different cell cycle phases.
For cell cycle analysis, MCF-7 cells were seeded at a density of 2 × 10^5 cells per well in 6-well plates. MCF-7 cells were treated with different concentrations of compound E10 for 24 h. After that, the cells were washed with PBS twice, collected by trypsin enzymic digestion and centrifugation, and the collected cells were subsequently fixed with 70% ice-cold ethanol overnight at 4 °C. The cells were stained with PI (50 μg/mL) the next day. The cell cycle distributions were measured through flow cytometry (BD), and the data were analyzed by Modfit 5.1 software.

HepG2 = assay: CCK-8 antiproliferative assay, HepG2; format: cell-based; details: Homo sapiens, HepG2; CCK-8, 48 h, mean ± SD of three experiments; read-out: IC50 HepG2
Method: After synthesis and characterization, the isolongifolenone bicyclocaprolactam derivatives were evaluated for their in vitro antiproliferative activity against three cancer cell lines (MCF-7, HepG2, A549) using a CCK-8 assay. […] In general, the antiproliferative activities of most of these compounds were similar, irrespective of whether electron-withdrawing or electron-donating substituents were introduced in the phenoxy ring.
Three cancer cell lines (human breast adenocarcinoma cells MCF-7, human lung adenocarcinoma epithelial cells A549, and human hepatocellular carcinoma cells HepG2) were obtained from the Cell Bank of the Chinese Academy of Sciences (Shanghai, China). LO2 human normal liver cells were also purchased from STEM RECELL (Beijing, China, STM-CL-5770). The anti-proliferation activity of compounds was tested on three cancer cell lines. The cytotoxicity of compounds as tested on normal cell line (human normal liver cells LO2). Cells were seeded at a density of 5000 cells per well in 96-well plates. Natural product piperlongumine was used as the positive control. All experiments were performed in triplicate. Three cancer cell lines were cultured in High DMEM medium or RIPM 1640 containing 10% FBS (Sijiqing, Hangzhou, China) and 1% antibiotics at 37 °C in a 5% CO2 incubator. The experimental cells were seeded in a 96-well plate at 5000 cells per well and incubated for 24 h. The old medium was replaced with experimental medium, and the cells were cultured for 48 h. Afterward, 10 µL of CCK-8 solution was added to each well, and the cells were incubated for 3 h. The absorbance at 450 nm was measured using a microplate reader.

MCF-7 cells [2] = assay: Western blotting of autophagy, AMPK-mTOR and apoptosis proteins; format: cell-based, human
Method: MCF-7 exponentially growing cells were plated in 6-well plates (2 × 10^5 cells/well). Then, derivatives E10 (0.5, 1.0 and 2.0 μM) were added to the well. After incubation for an additional 48 h, the cell culture medium was removed, and the cells were washed twice with ice-cold PBS. Subsequently, the cells were lysed to extract the total protein and centrifuged at 12,000 rpm for 5 min at 4 °C using lysis buffer (Beyotime, Shanghai, China, Cat. # P0013E). All protein concentrations were determined using a BCA kit. Equal amounts of protein (20–30 µg per lane) were loaded onto the gel. An equal amount of protein was analyzed using 12% SDS-PAGE gels and transferred to Hybond-P membrane containing polyvinylidene difluoride (PVDF). The membranes were then blocked with BSA for 2 h at room temperature and incubated with primary antibodies against p-mTOR (ImmunoWay Biotechnology, Beijing, China, YP1444, 1:5000), P62 (Proteintech Group, Inc., Wuhan, China, 60268-1-IG, 1:5000), LC3-I/II (Proteintech Group, Inc., Wuhan, China, 10253-2-AP, 1:5000) and p-AMPK, AMPK, Bcl-2, Bax, Cleaved-caspase 7 (ImmunoWay Biotechnology, Beijing, China, YP0251, 1:5000) overnight at 4 °C and with secondary antibodies (AP-conjugated goat anti-rabbit or anti-mouse, 1:10,000) for 2 h. Densitometry was performed in ImageJ 2 within the linear range. Targets were normalized to β-actin (or to the corresponding total protein for phospho-target), then expressed relative to vehicle (0.1% DMSO = 1.0). Where indicated, ratios such as LC3-II/LC3-I and Bax/Bcl-2 were calculated per lane before statistics.

MCF-7 cells [3] = assay: Annexin V/PI apoptosis assay by flow cytometry; format: cell-based, human
Method: The ability of drugs to induce cancer cell apoptosis is a key indicator of their chemotherapeutic potential. […] To examine the apoptotic effects of E10, an Annexin V-FITC dual-staining assay (with flow cytometric analysis) was performed. As shown in Figure 3A (also Figure 3C), treatment with increasing concentrations of E10 induced a marked elevation in apoptotic cell populations.
Autophagy has bidirectional regulation effects on cell survival. To confirm the role of autophagy in E10-induced cell death, 3-MA was used as an autophagy blocker.
MCF-7 cells were seeded at a density of 6 × 10^5 cells per well in 12-well plates and incubated in a 37 °C, 5% CO2 incubator for 24 h. After treatment with different concentrations of compound E10, the cells were washed with PBS two times, collected by trypsin enzymic digestion and centrifugation, and the collected cells were subsequently stained with 5 µL Annexin V-APC (YSRIBIO-C1084) and 5 µL PI for 10 min in the dark conditions. The cell apoptosis was measured with the flow cytometry (BD), and the data were analyzed by flowjo 10.6 software.

MCF-7 cells [4] = assay: Intracellular ROS assay (DCFH-DA, flow cytometry); format: cell-based, human; details: 24 h, compared to control
Method: Oxidative stress is known to increase intracellular reactive oxygen species (ROS) levels and to contribute to cell apoptosis and autophagy. To investigate whether E10 induced intracellular ROS accumulation, ROS levels in MCF-7 cells were determined by flow cytometric assay using DCFH-DA as a redox-sensitive probe.
For the detection of intracellular ROS levels, MCF-7 cells were seeded at a density of 5 × 10^5 cells per well in a 12-well plate and treated with different concentrations of compound E10 for 24 h. The cells were collected and stained with 5 μM of DCFH-DA dye (Yeasen, Shanghai, China, 50101ES01) in the incubator for 30 min. Flow cytometry (BD) detected the stained cell samples, and the data were analyzed using FlowJo software.

[5] = Figure 6A, E10 or E10 + 3MA, 24 h

For CC1(C)C2=CC(=O)N(C(=O)C=Cc3cccc(C(F)(F)F)c3)CC(C)(C)C23CCC1C3 (centres unmarked) [E10, 5,5,9,9-Tetramethyl-3-(3-(3-(trifluoromethyl)phenyl)acryloyl)-4,5,6,7,8,9-hexahydro-5a,8-methanobenzo[d]azepin-2(3H)-one], the “effect on cell cycle” value (MCF-7 cells [1]) was “cell cycle arrest at the G0/G1 phase”, the IC50 (HepG2) was 1360 ± 180 nM and the AMPK phosphorylation levels (MCF-7 cells [2]; E10 0.5, 1.0, 2.0 μM) was “increased”. The mTOR phosphorylation levels (MCF-7 cells [2]; E10 0.5, 1.0, 2.0 μM) was “strongly decreased”, the p62 expression (MCF-7 cells [2]; E10 0.5, 1.0, 2.0 μM) was “decrease” and the “LC3-I and LC3-II expression levels” value (MCF-7 cells [2]; after E10 treatment) was “up-regulated”. The Bax expression (MCF-7 cells [2]; compared with control) was “higher levels”, the Bcl-2 expression (MCF-7 cells [2]; compared with control) was “down-regulated” and the “cleaved caspase-7 expression” value (MCF-7 cells [2]; dose-dependent) was “dramatically up-regulated”. For the same molecule, the p53 expression (MCF-7 cells [2]; dose-dependent) was “dramatically up-regulated”, the “ratio of LC3-II/LC3-I” value (MCF-7 cells [2]; increasing concentrations of E10 (0.5, 1.0, 2.0 μM)) was “increased gradually” and the apoptosis rate (MCF-7 cells [3]; E10 0.5 µM, 24 h) was 7.78%. It also gave an apoptosis rate (MCF-7 cells [3]; E10 1.0 µM, 24 h) of 19.53%, an apoptosis rate (MCF-7 cells [3]; E10 2.0 µM, 24 h) of 24.93% and a Q1 necrotic cells (MCF-7 cells [3]; [5]) of 15.9. The “Q2 late apoptotic cells” value (MCF-7 cells [3]; [5]) was 9.62, the “Q3 early apoptotic cells” value (MCF-7 cells [3]; [5]) was 0.47 and the Q4 viable cells (MCF-7 cells [3]; [5]) was 74.0. For the same molecule, the “cell apoptosis with or without autophagy blocker 3-MA” value (MCF-7 cells [3]; Figure 6A, in comparison with control) was “significantly increased” and the “intracellular ROS levels” value (MCF-7 cells [4]) was “markedly increased”.
